In publication PMC5971037, “Synthesis and evaluation of antimicrobial, antitubercular and anticancer activities of 2-(1-benzoyl-1H-benzo[d]imidazol-2-ylthio)-N-substituted acetamides” (Chemistry Central Journal, 2018):
pIC50: −log10 of the molar value. Converted amounts (≈) assume the structure as drawn. Like-named read-outs stand apart in the source and are kept apart here.

Key:
B. cereus [1] = assay: Tube dilution MIC; details: Bacillus cereus, 24 h, read-out: MIC B. cereus
S. aureus [2] = assay: Tube dilution MIC; details: Staphylococcus aureus, 24 h, read-out: MIC S. aureus
B. subtilis [3] = assay: Tube dilution MIC; details: Bacillus subtilis, 24 h, read-out: MIC B. subtilis
[4] = tested on: MCF7 (human breast cancer) cell line; assay: Sulforhodamine-B (SRB) cytotoxicity assay; type: cell-based
E. coli [5] = assay: Tube dilution MIC; details: Escherichia coli, 24 h, read-out: MIC E. coli
S. aureus [6] = assay: MBC by subculturing; type: cell-based; details: Staphylococcus aureus
Experimental: (§1) The minimum bactericidal concentration (MBC) and minimum fungicidal concentration (MFC) of the synthesized benzimidazole derivatives was determined by subculturing 100 µl of culture from each tube that remained clear in MIC determination onto sterilized petri-plates containing fresh agar medium. The petri-plates were incubated and analyzed for microbial growth visually.

E. coli [7] = assay: MBC by subculturing; type: cell-based; details: Escherichia coli
Experimental: as §1

S. typhi [8] = assay: MBC by subculturing; type: cell-based; details: Salmonella enterica, read-out: MBC S. typhi
Experimental: as §1

B. cereus [9] = assay: MBC by subculturing; type: cell-based
Experimental: as §1

B. subtilis [10] = assay: MBC by subculturing; type: cell-based
Experimental: as §1

A. niger [11] = assay: MFC by subculturing; type: cell-based
Experimental: as §1

C. albicans [12] = assay: MFC by subculturing; type: cell-based
Experimental: as §1

[13] = In vivo LD50, ED50 and toxic dose in mice models; details: mouse, dose that killed 50% of the mice population within the group
Experimental: The LD50 and ED50 were determined for the active compounds in mice models infected with Mycobacterium H37Rv (Table 4). […] Thus, ED50 of 1.34 mg/kg was considered safe for each of the compounds. It was observed that this dose was effective and safe for mice in different groups before infecting the mice models with specific TB bacteria as no mortality of any single animal was recorded.
The LD50 (lethal dose) and ED50 (optimum/effective dose) doses were determined for the active compounds in mice models infected with Mycobacterium H37Rv via ethical permission no., NCFT/EC/16/2313 assigned to Collaborative Research Group (CRG), NCFT, New Delhi, India.

[14] = target: mycobacterial isocitrate lyase (Mycobacterium tuberculosis, UniProt P9WKK7); assay: Mycobacterial isocitrate lyase (ICL) assay; type: biochemical, M. tuberculosis H37Rv; details: read-out: Percent inhibition of enzyme, M. ICL activity
Experimental: The compounds found potent in in vivo evaluation were assayed for inhibition of mycobacterial enzymes viz., isocitrate lyase, pantothenate synthetase and chorismate mutase.
Isocitrate lyase activity was assayed according to the protocol reported by Dixon and Kornberg (glyoxylate phenyl hydrazone formation) at 10 μM of the compounds.

M. tuberculosis H37Rv [15] = assay: Minimum lethal concentration (MLC); type: cell-based; details: Mycobacterium tuberculosis, NA = no activity, read-out: MLC against M. tuberculosis H37Rv
[16] = tested on: M. tuberculosis H37Rv (NCFT/TB/537); assay: Well diffusion susceptibility test (zone of inhibition); type: cell-based; details: Mycobacterium tuberculosis, 672 h, read-out: Diameter of zone of inhibition against H37Rv (NCFT/TB/537), wells of 8 mm, 50 µg/ml test compound, 25 µg/ml standard drug, 4 weeks, NA = no activity
A. niger [17] = assay: microbe, parasite or virus in culture; details: Aspergillus niger, 168 h, read-out: MIC A. niger
C. albicans [18] = assay: microbe, parasite or virus in culture; details: Candida albicans, 48 h, read-out: MIC C. albicans
[19] = tested on: HCT116 (human colorectal) cell line; assay: Sulforhodamine-B (SRB) cytotoxicity assay; type: cell-based
S. typhi [20] = assay: Tube dilution MIC; type: cell-based; details: Salmonella enterica, 24 h, read-out: MIC S. typhi
M. tuberculosis H37Rv [21] = assay: MIC by microplate alamar blue assay; type: cell-based; details: Mycobacterium tuberculosis, NA = no activity, read-out: MIC against M. tuberculosis H37Rv
[22] = Bacillus cereus, read-out: MBC B. cereus
[23] = Bacillus subtilis, read-out: MBC B. subtilis
[24] = Aspergillus niger, read-out: MFC A. niger
[25] = Candida albicans, read-out: MFC C. albicans
[26] = SRB assay, MCF7 cell line, read-out: IC50 MCF7
[27] = Bacillus cereus; read-out: MBC B. cereus
[28] = Bacillus subtilis; read-out: MBC B. subtilis
[29] = Aspergillus niger; read-out: MFC A. niger
[30] = Candida albicans; read-out: MFC C. albicans
[31] = HCT-116, SRB assay, HCT116 cell line, read-out: IC50 HCT116

Chain of mycobacterial isocitrate lyase (P9WKK7 whole entry): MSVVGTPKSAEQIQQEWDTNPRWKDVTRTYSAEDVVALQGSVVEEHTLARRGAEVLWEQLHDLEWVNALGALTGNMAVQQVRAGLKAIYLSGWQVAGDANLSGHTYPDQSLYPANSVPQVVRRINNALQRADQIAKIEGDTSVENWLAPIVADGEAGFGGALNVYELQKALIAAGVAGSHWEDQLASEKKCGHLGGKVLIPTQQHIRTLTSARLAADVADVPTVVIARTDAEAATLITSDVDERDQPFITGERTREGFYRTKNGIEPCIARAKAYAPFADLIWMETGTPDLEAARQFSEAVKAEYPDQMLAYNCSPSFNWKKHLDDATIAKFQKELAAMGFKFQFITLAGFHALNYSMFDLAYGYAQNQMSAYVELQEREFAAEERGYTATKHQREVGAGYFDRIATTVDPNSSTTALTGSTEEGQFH

Row | Structure (SMILES) | MIC (B. cereus [1]) [µM] | MIC (S. aureus [2]) [µM] | MIC (B. subtilis [3]) [µM] | MIC (E. coli [5]) [µM] | MBC (S. aureus [6]) [µg/mL] | MBC (E. coli [7]) [µg/mL] | MBC (S. typhi [8]) [µg/mL] | MBC (B. cereus [9]; [22]) [µg/mL] | MBC (B. subtilis [10]; [23]) [µg/mL] | MFC (A. niger [11]; [24]) [µg/mL] | MFC (C. albicans [12]; [25]) [µg/mL] | LD50 [13] [mg/kg] | inhibition at 10 µM [14] [%] | MBC (M. tuberculosis H37Rv [15]) [µg/mL] | zone of inhibition at 50 µg/mL [16] [mm] | MIC (A. niger [17]) [µM] | MIC (C. albicans [18]) [µM] | MIC (S. typhi [20]) [µM] | MIC (M. tuberculosis H37Rv [21]) [µg/mL] | other results
1 | O=C(CSc1nc2ccccc2n1C(=O)c1ccccc1)Nc1cc(Cl)ccc1Cl [Compound 6, 2-(1-Benzoyl-1H-benzo[d]imidazol-2-ylthio)-N-(2,5-dichlorophenyl)acetamide] | 27 (≈ 12.3 µg/mL) | 27 (≈ 12.3 µg/mL) | 27 (≈ 12.3 µg/mL) | 27 (≈ 12.3 µg/mL) | > 50 | > 50 | 25 (≈ 54.8 µM) | > 50 | > 50 | > 50 | 50 (≈ 110 µM) | 1.86 | 56.8 | 25 (≈ 54.8 µM) | > 20 | 27 (≈ 12.3 µg/mL) | 14 (≈ 6.39 µg/mL) | 27 (≈ 12.3 µg/mL) | 12.5 (≈ 27.4 µM) | pIC50 ([4]; MCF7, read-out: IC50 MCF7): 4.05; pIC50 ([19]; HCT-116, read-out: IC50 HCT116): 4.08
2 | O=C(CSc1nc2ccccc2n1C(=O)c1ccccc1)Nc1ccccc1Cl [Compound 4, 2-(1-Benzoyl-1H-benzo[d]imidazol-2-ylthio)-N-(2-chlorophenyl)acetamide] | 30 (≈ 12.7 µg/mL) | 30 (≈ 12.7 µg/mL) | 30 (≈ 12.7 µg/mL) | 30 (≈ 12.7 µg/mL) | 50 (≈ 119 µM) | 50 (≈ 119 µM) | 50 (≈ 119 µM) | > 50 | > 50 | > 50 | 25 (≈ 59.3 µM) | 1.96 | 48.5 | 25 (≈ 59.3 µM) | > 20 | 30 (≈ 12.7 µg/mL) | 15 (≈ 6.33 µg/mL) | 30 (≈ 12.7 µg/mL) | 12.5 (≈ 29.6 µM) | pIC50 ([4]; MCF7, read-out: IC50 MCF7): 4.45; pIC50 ([19]; HCT-116, read-out: IC50 HCT116): 4.23
3 | COc1cccc(NC(=O)CSc2nc3ccccc3n2C(=O)c2ccccc2)c1 [Compound 14, 2-(1-Benzoyl-1H-benzo[d]imidazol-2-ylthio)-N-(3-methoxyphenyl)acetamide] | 30 (≈ 12.5 µg/mL) | 30 (≈ 12.5 µg/mL) | 30 (≈ 12.5 µg/mL) | 30 (≈ 12.5 µg/mL) | > 50 | 50 (≈ 120 µM) | > 50 |  |  |  |  |  |  |  |  | 30 (≈ 12.5 µg/mL) | 30 (≈ 12.5 µg/mL) | 30 (≈ 12.5 µg/mL) |  | pIC50 [4, 26]: 4.02; MBC (B. cereus [9]; [27]): > 50 µg/mL; MBC (B. subtilis [10]; [28]): > 50 µg/mL; MFC (A. niger [11]; [29]): > 50 µg/mL; MFC (C. albicans [12]; [30]): 50 µg/mL (≈ 120 µM); pIC50 [19, 31]: 4.02
4 | O=C(CSc1nc2ccccc2n1C(=O)c1ccccc1)Nc1cccc(Cl)c1 [Compound 5, 2-(1-Benzoyl-1H-benzo[d]imidazol-2-ylthio)-N-(3-chlorophenyl)acetamide] | 30 (≈ 12.7 µg/mL) | 30 (≈ 12.7 µg/mL) | 30 (≈ 12.7 µg/mL) | 30 (≈ 12.7 µg/mL) | 50 (≈ 119 µM) | 50 (≈ 119 µM) | 50 (≈ 119 µM) |  |  |  |  |  |  | 28.1 (≈ 66.6 µM) | 8 | 30 (≈ 12.7 µg/mL) | 15 (≈ 6.33 µg/mL) | 30 (≈ 12.7 µg/mL) | 17.8 (≈ 42.2 µM) | pIC50 [4, 26]: 4.08; MBC (B. cereus [9]; [27]): > 50 µg/mL; MBC (B. subtilis [10]; [28]): 50 µg/mL (≈ 119 µM); MFC (A. niger [11]; [29]): > 50 µg/mL; MFC (C. albicans [12]; [30]): 50 µg/mL (≈ 119 µM); pIC50 [19, 31]: 3.88
5 | [H]/N=C(/N)N[C@H]1[C@H](O)[C@@H](O)[C@H](O[C@@H]2O[C@@H](C)[C@](O)(C=O)[C@H]2O[C@@H]2O[C@@H](CO)[C@H](O)[C@@H](O)[C@@H]2NC)[C@@H](N/C(N)=N\[H])[C@@H]1O [Streptomycin sulphate, streptomycin sulphate, reference compound] |  |  |  |  |  |  |  |  |  |  |  |  | 75.1 |  |  |  |  |  |  | 
6 | COc1ccc(NC(=O)CSc2nc3ccccc3n2C(=O)c2ccccc2)cc1 [Compound 18, 2-(1-Benzoyl-1H-benzo[d]imidazol-2-ylthio)-N-(4-methoxyphenyl)acetamide] | 30 (≈ 12.5 µg/mL) | 30 (≈ 12.5 µg/mL) | 30 (≈ 12.5 µg/mL) | 30 (≈ 12.5 µg/mL) | > 50 | 50 (≈ 120 µM) | > 50 | > 50 | > 50 | > 50 | 50 (≈ 120 µM) | 3.15 | 64.6 | 25 (≈ 59.9 µM) | > 20 | 30 (≈ 12.5 µg/mL) | 15 (≈ 6.26 µg/mL) | 30 (≈ 12.5 µg/mL) | 12.5 (≈ 29.9 µM) | 
7 | COc1ccccc1NC(=O)CSc1nc2ccccc2n1C(=O)c1ccccc1 [Compound 17, 2-(1-Benzoyl-1H-benzo[d]imidazol-2-ylthio)-N-(2-methoxyphenyl)acetamide] | 30 (≈ 12.5 µg/mL) | 30 (≈ 12.5 µg/mL) | 30 (≈ 12.5 µg/mL) | 30 (≈ 12.5 µg/mL) | 50 (≈ 120 µM) | > 50 | > 50 | > 50 | > 50 | > 50 | 50 (≈ 120 µM) | 3.17 | 43.5 | 25 (≈ 59.9 µM) | > 20 | 30 (≈ 12.5 µg/mL) | 15 (≈ 6.26 µg/mL) | 30 (≈ 12.5 µg/mL) | 12.5 (≈ 29.9 µM) | 
